The record followed here is patent publication US6974867B2, “Compositions and methods for treating neoplastic disease using chemotherapy and radiation sensitizers” (Chiron Corporation, priority 2000, dated 2005).

The test system of data set [1] is Breast Cancer Cell Line MDA-MB-231. Description: LDH cytotoxicity assay, breast cancer cell line. In kind it is cell-based. On the procedure:
(§1) The effect of KIAA0175 anti-sense molecules on cell sensitivity to chemotherapeutic drugs was tested on several cell lines using the lactate dehydrogenase (LDH) cytotoxicity assay essentially as follows:
(§2) Day 1: Cells were seeded in 4 separate 96 well plates, typically 5000 cells/well and incubated at 37° C. and 5% CO2.
(§3) Day 2: Cells were transfected with the KIA175-1182 and KIA175-545 anti-sense oligonucleotides (SEQ ID NOs:5 and 1, respectively) as well as the reverse complement controls, RC1182 and RC545 (SEQ ID NOs:6 and 2, respectively) essentially as described in Example 4, with and without drug. One plate (day 0) was left untransfected as a seeding control.
(§4) The transfection was carried out using a lipid vehicle for delivery as described in WO 01/16306, hereby incorporated in its entirety. Briefly, the transfection used agents known as “lipitoids” and “cholesteroids”, described, for example, in PCT publications WO 01/16306, WO 98/06437 and WO 99/08711, based on U.S. Ser. No. 60/023,867, 60/054,743, and 09/132,808, which are also hereby incorporated by reference. These lipid-cationic peptoid conjugates are shown in these references to be effective reagents for the delivery of plasmid DNA to cells in vitro. Any of the carriers described in the above-referenced applications are suitable for use in transfection of the oligonucleotides described herein.
(§5) Depending on the cell type, different lipid vehicles were used for different lengths of time for transfection. […] The transfection was carried out in complete medium and the final anti-sense oligonucleotide concentration was 300 nM per well. In the wells with drug, the drug was added to the culture at the beginning of the transfection.
(§6) Starting on Day 3: Cells were recovered, 1 plate/day and release of LDH into the supernatant was measured using a kit from Roche according to manufacturer's instructions (Roche Diagnostics, Basel, Switzerland) (data labeled as day 1, 2, 3).
(§7) For each sample, the data are expressed as a ratio of the level of LDH in wells containing cells transfected with anti-sense (AS) over the level of LDH in wells containing cells transfected with the reverse complement controls (RC) (ie:AS/RC). Thus, cells that become sensitized to drug will die and release LDH into the supernatant. An increase in the ratio signifies increased cell death and thus, higher levels of LDH in the media. A ratio higher than 1.5 signifies an effect of the anti-sense over the reverse complement control.

For another data set, the system named is HT1080 cells. Description: Cell cycle arrest upon γ-irradiation in transfected HT1080 cells. In kind it is cell-based, human. As to the method: Because both p53 and p21 are involved in the G1 to S phase cell cycle transition, the following experiments were performed in order to assess the effect of KIAA0175 anti-sense molecules on cell cycle regulation.
Table 1 discloses the percentage of HT1080 cells in each stage of the cell cycle at various times following exposure to γ-irradiation. By 24 hours, cells were arrested in both the G1 and G2 phases as evidenced by the elevated percentage of cells in G0/G1 and G2/M phases as compared to the diminished percentage of cells in the S phase.
Table 2 discloses the effect of KIAA0175 anti-sense molecules on γ-irradiation induced cell-cycle arrest. In cells transfected with anti-sense molecules, there was a reduction in the accumulation of cells in the G1 phase and a minimized reduction in the number of cells in the S phase as compared to cells transfected with a “reverse-control” anti-sense molecule as control.

The subject of the next data set is KIAA0175. Description: Western analysis of KIAA0175 protein level after anti-sense transfection, HT1080 cells. In kind it is cell-based, human. From the text:
(§8) In separate experiments, either HT1080 or HCT116 cells expressing endogenous KIAA0175 and p53 were transfected with either FITC, KIAA0175 anti-sense oligonucleotides (i.e. 545 or 1182), or the corresponding reverse control oligonucleotides (RC or RC545). Total cell lysates were fractionated by SDS-polyacrylamide gel electrophoresis and transferred to nitrocellulose membranes. Specific proteins were detected by Western analysis using antibodies to either KIAA0175 (rabbit polyclonal antisera), p53, Erk2, or p21 antibodies as indicated. Antibodies against p53, p21 and Erk2 were obtained from Santa Cruz Biotechnology, Inc. (Santa Cruz, Calif.).

Data set [2] deals with p53. In words: Western analysis of p53 after γ-irradiation of transfected HT1080 cells. In kind it is cell-based, human. The note with it: 10 Gy γ-irradiation 24 hours after transfection. On the procedure:
(§9) HT1080 cells expressing endogenous KIAA0175 were transfected with the KIAA0175 anti-sense oligonucleotide (1182) and the corresponding reverse control oligonucleotide (RC1182). After culture for 24-hours, the transfected cells were treated with 10 Gy of γ-irradiation. At various times after irradiation, cells were harvested and lysates prepared and subjected to SDS-PAGE. p53, Erk2, and p21 proteins were detected by Western analysis.

Data set [3] relates to p53. In words: Western analysis of p53 protein level after anti-sense transfection, HT1080 cells. In kind it is cell-based, human.
Description: as §8

The test system of the next data set is p21. Description: Western analysis of p21 after γ-irradiation of transfected HT1080 cells. Conditions: 10 Gy γ-irradiation 24 hours after transfection. In kind it is cell-based, human. As to the method:
as §9

The test system of another data set is KIAA0175 mRNA. Description: Northern analysis of KIAA0175 mRNA after anti-sense oligonucleotide transfection. In kind it is cell-based, human. Conditions: HT1080 cells. As to the method:
HT 1080 cells express endogenous KIAA0175. These cells were transfected with either the FITC (negative control) or AKT1 (positive control) oligonucleotides), 1182, or 545 oligonucleotides. Briefly, 100 nM of the respective anti-sense oligonucleotide was mixed with lipitoid 1 transfection reagent (Huang et al., Chemistry and Biology 5(6):346-354 (1998)) in a 1:3 volume to volume ratio in OPTI-MEM (GibcoBRL). The mixture was added to the HT1080 cells in complete medium (EMEM, 10% heat inactivated fetal bovine serum (FBS), 2 mM L-Glutamine, 100 U/ml Penicillin, and […] Streptomycin) and the cells were incubated at 37° C. for ^˜4-5 hours in the presence of the anti-sense oligonucleotides before changing to fresh complete medium. Total RNA was extracted at day 1 or 24, 48, or 72 hours following transfection and mRNA levels of KIAA0175 were detected by Northern analysis. 20 μg of total RNA were subjected to electrophoresis on a denaturing agarose gel. RNA was transferred to nitrocellulose and KIAA0175 mRNA was detected by probing with a ^32P-labeled, 0.7 kb KIAA0175 cDNA fragment. To control for equal loading of individual lanes, the blot was stripped of the KIAA0175 probe and re-probed with a ^32P-labeled G3PDH cDNA probe obtained from Clontech.

Data set [4] relates to Normal Breast Epithelial Cell Line 184B5. In words: LDH cytotoxicity assay, normal breast epithelial cell line. In kind it is cell-based. On the procedure:
as §1, §2, §3, §4, §5, §6, §7

Turning to “KIA175-1182: KIAA0175 anti-sense oligonucleotide 5′-GGGTAGCACTGGCTTGTCCACAGGA-3′ (listed as DNA, chemistry not given here)”, the “LDH ratio AS/RC” value was 0.76 in data set [1] (MDA-MB-231, Day 0 (untransfected seeding control plate), 300 nM oligonucleotide); 2.04 in data set [1] (MDA-MB-231, Day 1, 300 nM oligonucleotide, ratio higher than 1.5 signifies an effect); 1.67 in data set [1] (MDA-MB-231, Day 2, 300 nM oligonucleotide, ratio higher than 1.5 signifies an effect); 1.52 in data set [1] (MDA-MB-231, Day 3, 300 nM oligonucleotide, ratio higher than 1.5 signifies an effect); 0.0000 in data set [4] (184B5, Day 0 (untransfected seeding control plate), 300 nM oligonucleotide); 1.0223 in data set [4] (184B5, Day 1, 300 nM oligonucleotide, ratio higher than 1.5 signifies an effect). Besides, the “LDH ratio AS/RC” value in data set [4] (184B5, Day 2, 300 nM oligonucleotide, ratio higher than 1.5 signifies an effect) is 0.9065; in data set [4] (184B5, Day 3, 300 nM oligonucleotide, ratio higher than 1.5 signifies an effect) it was 1.0663. Moreover, the “percentage of cells in G0-G1” value is given as 39.3% with HT1080 cells (+ γ-irradiation) and 47.4% in the data set on HT1080 cells (− γ-irradiation). Also, the “percentage of cells in G2-M” value is reported as 42.17% in the data set with HT1080 cells (+ γ-irradiation) and 26.8% in the data set with HT1080 cells (− γ-irradiation). In addition, the “percentage of cells in S” value with HT1080 cells (+ γ-irradiation) amounted to 18.6%; in the data set with HT1080 cells (− γ-irradiation), 25.7%. Also, the “time of maximal anti-sense activity, KIAA0175 protein” value in the data set with KIAA0175 turned out to be 48 h. Further, the “γ-irradiation induced increase in p53 protein level” value in the data set on p53 [2] is “blocked the γ-irradiation induced increase in p53 protein level”. Moreover, the “time of maximal anti-sense activity, p53 protein” value in the data set on p53 [3] was determined as 48 h. Besides, in the data set with p21, the “p21 protein levels after γ-irradiation” value was “reduction of p21 protein levels”. In addition, the “level of KIAA0175 mRNA expression” value in the data set with KIAA0175 mRNA (100 nM oligonucleotide, Northern analysis) is “effective in reducing the level of KIAA0175 mRNA expression”. The “KIAA0175 mRNA expression over time” value in the data set on KIAA0175 mRNA (24 to 72 hours after oligonucleotide administration) is recorded as “increased gradually”. Moreover, in data set [4] (184B5 normal breast epithelial cell line), the “effect on cell death (LDH)” value is listed as “neither KIA175-1182 nor KIA175-545 has an effect”.
